Results reported in PMC7274539, “The selective glucocorticoid receptor antagonist CORT125281 has tissue-specific activity” (The Journal of Endocrinology, 2020).
pIC50: −log10 of the molar value.

Assays:
[1] = system: GR transcriptional activity; experiment: Acute corticosterone exposure or basal conditions: RT-qPCR of GR target genes in tissues; type: in vivo, C57Bl/6J mice
Protocol: (§1) All studies involving animals were approved by the institutional ethics committee on animal care and experimentation at the Leiden University Medical Center. The 8-week old male C57Bl/6J mice (Charles River) were housed in ventilated cages with a 12 h light:12 h darkness regime and ad libitum access to food and water. In the acute corticosterone exposure experiments, mice received a synthetic chow diet (Research Diets, New Brunswick, NJ, USA) containing vehicle or CORT125281 (6, 20 or 60 mg/kg/day, Corcept Therapeutics, Menlo Park, CA, USA) for 6 days. […] Mice were treated daily with vehicle, 60 mg/kg mifepristone (Corcept Therapeutics) or 60 mg/kg CORT125281 (dissolved in PBS with 0.1% Tween 80 and 0.5% hydroxypropylmethylcellullose, Corcept Therapeutics) via oral gavage for 5 days, after which mice were killed by CO2 inhalation. Throughout the experiment, body weight was monitored and body composition was determined with EchoMRI™ (Frankfurt, Germany). After 5 days, blood was collected from the lateral tail vain in paraoxon-coated capillaries after a 6-h fast. Plasma triglyceride, total cholesterol, free fatty acid, glucose and insulin levels were determined using commercially available kits (Roche; Instruchemie, Delfzijl, Netherlands and Crystal Chem, Zaandam, Netherlands). Blood concentrations of the major leukocyte classes, that is, lymphocytes, monocytes and eosinophils, were determined in whole blood using an automatic veterinary hematology analysis (Sysmex XT-2000iV; Goffin Meyvis, Etten-Leur, the Netherlands).
(§2) In both acute and subchronic corticosterone experiments, relevant tissues (including quadriceps muscle, interscapular BAT, gonadal white adipose tissue (WAT), adrenals, spleen, thymus, pituitary and hippocampus) were collected to determine tissue weight and/or for further molecular analysis.
Total RNA was isolated from snap-frozen tissues using TriPure isolation reagent (Roche). After reverse transcription to cDNA (Promega), RT-qPCR was performed using IQ SYBR-Green supermix and MyIQ thermal cycler (Bio-RAD CFX96). Primers were tested for high efficiency (90–110%) and for amplification of a single PCR product. All primer sequences are listed in Supplementary Table 1 (see section on supplementary materials given at the end of this article), with the exception of Ncor1 and Ncor2 which were purchased from Qiagen. Fold change expression was calculated using the 2^−ΔΔ^CT method.

GR activity in the brain = experiment: In situ hybridization of Gilz mRNA, Fkbp5 hnRNA, Nr3c1 and Nr3c2 in hippocampus and PVN; type: in vivo, C57Bl/6J mice
Protocol: as §1
(§3) For dual label in situ hybridization, frozen unfixed pituitaries were embedded in tissue-tek OCT (Sakura Finetek, Alphen aan den Rijn, Netherlands), sliced (12 µm) and collected on glass slides (Superfrost Plus, Thermo Fisher Scientific). Dual label in situ hybridization was performed using the QuantiGene ViewRNA ISH Tissue 2-Plex Assay (Thermo Fisher Scientific) and pictures were captured with a wide-field microscope (DM6B, Leica Microsystems). For 4-plex in situ hybridization, frozen, unfixed brain slices (12 µm) were collected on glass slides at bregma −0.772 mm (PVN) and −1.532 mm (hippocampus). 4-plex in situ hybridization was performed using the RNAScope fluorescent multiplex assay and RNAscope 4-plex ancillary kit (Advanced Cell Diagnostics, Newark, CA, USA) and Opal fluorophores 520, 570, 620 and 690 (PerkinElmer). Pictures were captured with a confocal microscope (SP8 WLL, Leica Microsystems). All pictures were analysed with ImageJ Software (NIH).

[2] = system: hypothalamus-pituitary-adrenal (HPA)-axis activity; experiment: Basal and novelty stress-induced HPA-axis activity (ACTH, corticosterone, pituitary Pomc, adrenal weight); type: in vivo, C57Bl/6J mice
Protocol: as §1, §2
Novelty stress tests were performed in the morning (between 08:00–12:00 h) after 2 days of exposure to CORT125281. At t = 0, a blood sample was collected, after which mice were placed in a novel cage without bedding. After 10 min, a second blood sample was collected and mice were placed back in their original home cage.
as §3

GR = system: GR; design: method as in Lahteenmaki et al. 1987, Kroon et al. 2018; details: half maximal inhibitory concentration of the GR antagonist; ref Lahteenmaki et al. 1987, Kroon et al. 2018; cited from earlier work
other nuclear receptors = system: other nuclear receptors; design: method as in Kroon et al. 2018; details: ref Kroon et al. 2018; cited from earlier work
HPA-axis activity = system: HPA-axis activity; design: method as in Kroon et al. 2018; details: ref Kroon et al. 2018; cited from earlier work
[3] = 60 mg/kg/day, corticosterone 1.5 mg/kg, liver
[4] = 60 mg/kg/day, without corticosterone exposure
[5] = 20 mg/kg/day CORT125281 6 days, corticosterone injection 1 h

In the case of Cn1ncc(S(=O)(=O)N2CC[C@H]3Cc4c(cnn4-c4ccc(F)cc4)C[C@]3(C(=O)c3cc(C(F)(F)F)ccn3)C2)n1 [CORT125281], the “corticosterone-induced mRNA of GR target genes in liver” value ([1]; 60 mg/kg/day via food 6 days, corticosterone 1.5 mg/kg s.c. 1 h before killing, liver) was “complete blockade”, the “corticosterone-induced GR target genes in BAT” value ([1]; 60 mg/kg/day via food 6 days, corticosterone 1.5 mg/kg, BAT) was “inhibition of only a subset of corticosterone-induced genes” and the “corticosterone-induced GR target genes in WAT” value ([1]; 60 mg/kg/day via food 6 days, corticosterone 1.5 mg/kg, WAT) was “no effects”. The “corticosterone-induced GR target genes in hippocampus” value ([1]; 60 mg/kg/day via food 6 days, corticosterone 1.5 mg/kg, hippocampus) was “no effects”, the “corticosterone-induced GR target genes in muscle” value ([1]; 60 mg/kg/day via food 6 days, corticosterone 1.5 mg/kg, quadriceps muscle) was “inhibition of only a subset of corticosterone-induced genes” and the “corticosterone induction of G6pc in liver” value [1, 3] was “a similar pattern was observed”. The “corticosterone induction of Pepck in liver” value [1, 3] was “blocked the induction”, the “corticosterone induction of Murf1 in muscle” value ([1]; 60 mg/kg/day, corticosterone 1.5 mg/kg, muscle) was “completely blocked” and the “mRNA levels of Gilz and G6p in liver” value ([1]; 60 mg/kg/day, intact animals without prior corticosterone exposure) was “inhibited mRNA levels”. The “Cd36 expression in BAT” value [1, 4] was “upregulated”, the “GR target gene expression in WAT” value [1, 4] was “did not affect” and the “GR target gene expression in muscle” value [1, 4] was “did not affect”. For the same compound, the “expression of Sgk1 and Mt2a in hippocampus” value ([1]; 60 mg/kg/day, without corticosterone exposure, to a very modest extent) was “downregulated”, the “antagonistic actions on corticosterone-induced genes in BAT” value ([1]; 6-20 mg/kg/day doses, BAT) was “completely lost” and the “Mt2a expression in liver of solvent-injected mice” value ([1]; 6 and 20 mg/kg/day, solvent injection) was “inhibited”. The “corticosterone-induced GR transcriptional activity of Fkbp5, Gilz, Sgk1 and Mt2a in liver” value ([1]; lower doses 6 and 20 mg/kg/day, 6 days, corticosterone 1 h before tissue collection) was “partially inhibited”, the “GR transcriptional activity in WAT” value ([1]; lower doses 6 and 20 mg/kg/day, WAT) was “did not inhibit” and the “dose required to attenuate corticosterone-induced expression of Fkbp5 and Gilz in liver” value ([1]; via food 6 days, liver) was 20 mg/kg/day. The “dose sufficient to attenuate corticosterone-induced expression of Sgk1 and Mt2a in liver” value ([1]; via food 6 days, liver) was 6 mg/kg/day, the “Nr3c1 (Gr) mRNA levels in the hippocampus” value (GR activity in the brain; [5]) was “Neither corticosterone nor CORT125281 affected” and the “Nr3c1 or Nr3c2 expression in the PVN” value (GR activity in the brain; [5]) was “Neither corticosterone nor CORT125281 affected”. The “basal mineralocorticoid receptor (MR; Nr3c2) mRNA expression in the hippocampus” value (GR activity in the brain; 6-20 mg/kg/day) was “increased”, the “corticosterone-induced Fkbp5 hnRNA and Gilz mRNA levels in the PVN” value (GR activity in the brain; 6-20 mg/kg/day) was “had little effect” and the “corticosterone induction of Gilz mRNA and Fkbp5 hnRNA in hippocampal subfields” value (GR activity in the brain; 6-20 mg/kg/day, corticosterone 1 h before tissue collection) was “did not prevent this induction”. The “basal levels of Fkbp5 hnRNA in CA2 and CA3 regions” value (GR activity in the brain; 6-20 mg/kg/day, hippocampus) was “upregulated”, the adrenal weights ([2]; 60 mg/kg/day) was “did not alter” and the “peak and trough corticosterone levels” value ([2]; 60 mg/kg/day) was “did not alter”. For the same compound, the “peak novelty stress-induced corticosterone levels” value ([2]; 60 mg/kg/day) was “slightly attenuated”, the “slope of corticosterone during the recovery phase (t = 30 to 120 min)” value ([2]; 60 mg/kg/day, novelty stress) was “unaltered” and the “GR (Nr3c1) mRNA expression in the anterior pituitary” value ([2]; 6-20 mg/kg/day) was “increased”. The “expression of pro-opiomelanocortin (Pomc) in the anterior pituitary” value ([2]; 6-20 mg/kg/day) was “unaltered”, the weight of adrenals ([2]; 6-20 mg/kg/day) was “unaltered” and the “basal peak or trough corticosterone levels” value ([2]; 6-20 mg/kg/day, 08:00 h and 18:00 h) was “did not alter”. The “corticosterone levels after novelty stress” value ([2]; 6 and 20 mg/kg/day vs vehicle, all measured time points, day 2) was “similar”, the “circulating levels of ACTH” value ([2]; 6 and 20 mg/kg/day, 18:00 on day 4) was “unchanged” and the pIC50 (GR) was 6.37. For the same compound, the “cross-reactivity with other nuclear receptors” value (other nuclear receptors) was “lacks cross-reactivity” and the “diurnal corticosterone rhythm flattened by high-fat diet” value (HPA-axis activity) was “restored”.
